Measurements from patent US20250281610A1, “P2RY2 ACTIVITY MODULATORS” (Deutsches Krebsforschungszentrum Stiftung des öffentlichen …, priority 2022, published 2025).

Experiments:
THP-1 cells = assay: Viability of THP-1 cells in co-culture with CD33-specific CAR-T cells (flow cytometry-based cell counting); design: species or system human; settings: 100 uM Diquafosol, 24 hours, co-culture with CD33-specific CAR-T cells (FIG. 9)
Protocol: FIG. 8. Effects of P2RY2 antagonist on T cells and cancer cells in T cell-cancer cell co-cultures. T cells transduced with CD33-specific CAR (CAR-T) were co-cultured with genetically edited THP-1 cells in the absence or presence of 5 μM AR-C 118925XX (AR-C) for 6-24 hours. Control cells: THP-1 cells transduced with non-targeting sgRNA and Cas9 (gNT); P2RY2 deficient cells: THP-1 cells transduced with P2RY2-targeting sgRNA and Cas9 (gP2RY2-3, gP2RY2-4); B7-H3 (CD276) deficient cells: THP-1 cells transduced with B7-H3-targeting sgRNA and Cas9 (gCD276-1); P2RY2 and B7-H3 double deficient cells: THP-1 cells transduced with P2RY2-targeting sgRNA, B7-H3-targeting sgRNA, and Cas9 (gCD276-1 gP2RY2-3 DKO, gCD276-1 gP2RY2-4 DKO); P2RY2 overexpression cells: THP-1 cells transduced with the open reading frame of P2RY2 (P2RY2-OE); B7-H3 overexpression cells: THP-1 cells transduced with the open reading frame of CD276 (CD276-OE). […]
FIG. 9. […] Control cells THP-1 cells transduced with non-targeting sgRNA and Cas9 (Ctrl.); P2RY2 overexpression cells: THP-1 cells transduced with the open reading frame of P2RY2 (P2RY2-OE). […]
The open reading frames of transcripts of P2RY2(ENST00000393597.7) or CD276(ENST00000318443.10), were ordered as a codon optimized gBlock Gene Fragment (Integrated DNA Technologies or Twist Bioscience) and cloned into a lentiviral vector containing a blasticidin selection cassette. […]
MART1-specific CD8+ T cells and MART1 epitope-expressing cancer cells were mixed at a ratio of 1:16 to 1:4. […] T cell activation was assessed by surface staining with anti-CD137-BV421 (4-1BB, Biolegend), anti-CD69-APC/Fire™ 750 (FN50, Biolegend), anti-CD25-AF700 (BC96, Biolegend) antibodies and intracellular staining with anti-IL-2-PE/Cy7 (MQ1-17H12, Biolegend), anti-IFN-7-BV421 (4S.B3, Biolegend), anti-TNF-α-BV785 (MAb11, Biolegend) antibodies, followed by flow cytometry analysis. […] The viability of cancer cells that grow in suspension including THP-1 cells was assessed by flow cytometry-based absolute cell counting using AccuCount beads (Spherotech). […]

[1] = test system: CEA-specific CAR transduced T cells co-cultured with SW480 cells; assay: T cell activation in co-culture of CEA-specific CAR-T cells with SW480 cells; assay type: cell-based, human; settings: 40 μM ATP, 200 μM ATPγS, 10 μM Diquafosol, 5 μM Denufosol, 24 hours (FIG. 19)
Protocol: FIG. 19. Effects of P2RY2 agonist and P2RY2 antagonist on T cell activity in T cell-cancer cell co-cultures. T cells transduced with a CEA-specific CAR (CAR-T) were co-cultured with genetically edited SW480 cells for 24 hours in the absence or presence of 40 μM ATP, 200 μM ATPγS, 10 μM Diquafosol, 5 μM Denufosol and 10 μM AR-C 118925XX (AR-C). Control cells: SW480 cells transduced with non-targeting sgRNA and Cas9 (gNT); P2RY2 deficient cells: SW480 cells transduced with P2RY2-targeting sgRNA and Cas9 (gP2RY2-3, gP2RY2-4); B7-H3 (CD276) deficient cells: SW480 cells transduced with B7-H3-targeting sgRNA and Cas9 (gCD276-1); P2RY2 and B7-H3 double deficient cells: SW480 cells transduced with P2RY2-targeting sgRNA, B7-H3-targeting sgRNA, and Cas9 (gCD276-1 gP2RY2-3 DKO, gCD276-1 gP2RY2-4 DKO); P2RY2 overexpression cells: SW480 cells transduced with the open reading frame of P2RY2 (P2RY2-OE); B7-H3 overexpression cells: SW480 cells transduced with the open reading frame of CD276 (CD276-OE). Transduced cancer cells were selected by antibiotics according to antibiotic resistance genes carried by the lentiviral constructs. Flow cytometry analysis of expression of CD25 and CD69 and production of IFNγ within the CD3+CD8+ or CD3+CD4+ cell population is shown (values indicate the percentages of positive cells).
(§1) MART-1 specific T cells were generated as described (Mezzadra et al., Nature 549, 106-110 (2017); Jorritsma et al., Blood 110 (10): 3564-3572. (2007)). To generate CD33-specific chimeric antigen receptor (CAR) T cells and CEA-specific CAR-T cells, a CD33Hul95-CD28Z CAR (described in WO 2019/178382) cassette and MFE-23 (described in US20050147614A1)-CD28Z CAR were separately cloned into retroviral vectors, and the resulting virus was used to transduce T cells as described (Mezzadra et al., Nature 549, 106-110 (2017); Jorritsma et al., Blood 110 (10): 3564-3572. (2007)).
The open reading frames of transcripts of P2RY2 (ENST00000393597.7) or CD276 (ENST00000318443.10), were ordered as a codon optimized gBlock Gene Fragment (Integrated DNA Technologies or Twist Bioscience) and cloned into a lentiviral vector containing a blasticidin selection cassette. Constructs were verified by Sanger sequencing.
(§2) MART1-specific CD8+ T cells and MART1 epitope-expressing cancer cells were mixed at a ratio of 1:16 to 1:1. CD33 CAR-T cells and CD33 expressing THP-1 cells were mixed at a ratio of 1:16 to 1:4. CEA CAR-T cells and CEA expressing SW480 cells were mixed at a ratio of 1:1. Next, cells were centrifugated at 1,600 g for 3 min and incubated at 37° C. and 5% CO2 for 12-72 hours. T cell activation was assessed by surface staining with anti-CD137-BV421 (4-1BB, Biolegend), anti-CD137-PE/Cy7 (4-1BB, Biolegend), anti-CD69-APC/Fire™ 750 (FN50, Biolegend), anti-CD25-AF700 (BC96, Biolegend), anti-CD25-APC (BC96, Biolegend) antibodies and intracellular staining with anti-IL-2-PE/Cy7 (MQ1-17H12, Biolegend), anti-IFN-7-BV421 (4S.B3, Biolegend), anti-TNF-α-BV785 (MAb11, Biolegend), anti-TNF-α-APC (MAb11, Biolegend) antibodies, followed by flow cytometry analysis. For intracellular staining, brefeldin A (Biolegend) was added to the cell culture medium 4 h before cells were harvested. The viability of cancer cells that grow in suspension including THP-1 cells was assessed by flow cytometry-based absolute cell counting using AccuCount beads (Spherotech). For adherent cancer cells including BxPC3, MIA PaCa-2, MDA-MB-231 and MCF7, the cell viability was quantified using CellTiter-Blue Cell Viability Assay (Promega).

B7-H3 = assay: Flow cytometry analysis of B7-H3 expression after ATP or UTP stimulation; assay type: cell-based, human; settings: for B7-H3 expression: P2RY2 proficient cells (THP-1, FIG. 3) stimulated with ATP or UTP for 24 hours
From the text: FIG. 2. Flow cytometry analysis of B7-H3 expression in wildtype (WT) and P2RY2-deficient bulk THP-1, U937, KBM7, and K562 cells (P2RY2-3 KO and P2RY2-4 KO) in the absence or presence of ATP. Values indicate MFI relative to untreated WT cells.
FIG. 3. Flow cytometry analysis of B7-H3 expression in THP-1 cells in the absence or presence of ATP. Values indicate MFI relative to untreated cells.
THP-1 cells, U937 cells, K562 cells, and KBM7 cells were transduced with a lentiviral vector encoding Cas9 along with a Blasticidin S resistance cassette ([…] deaminase). One day after the transduction, cells were selected with 50 microgram/milliliter Blasticidin S Hydrochloride for […]. Next, surviving cells were transduced with one of the lentiviral vectors encoding sgRNA targeting the sequences 5′-[…]-3′ (SEQ ID NO:6) and 5′-[…]-3′ (SEQ ID NO:7) on the coding strand of P2RY2 gene, along with a puromycin resistance cassette (puromycin N-acetyltransferase). One day after the transduction, cells were selected with 2 microgram/milliliter Puromycin dihydrochloride for 48-96 hours. Selected cells were expanded, subjected to genomic DNA isolation, and analyzed for deleterious editing of the P2RY2 locus by PCR (using primers 5′-[…]-3′ (SEQ ID NO:8) and 5′-[…]-3′ (SEQ ID NO:9)) and Sanger sequencing of the PCR products using primer 5′-[…]-3′ (SEQ ID NO:8) for the sgRNA(5′-[…]-3′, SEQ ID NO:6)) transduced cell and 5′-[…]-3′ (SEQ ID NO:9) for the sgRNA(5′-[…]-3′, SEQ ID NO:7) transduced cell.
The polyclonal cells transduced with Cas9 and sgRNA targeting P2RY2, and wildtype cells were cultured in the absence or presence of ATP or UTP (ligands of P2RY2, Sigma) for 24 hours, stained with anti-B7-H3 antibody and analyzed by flow cytometry.

BxPC3 cells = assay: Viability of BxPC3 cells in co-culture with MART-1-specific TCR-T cells (CellTiter-Blue); assay type: cell-based, human; settings: single agent: 5 μM AR-C, 10 μg/ml atezolizumab or 10 μg/ml durvalumab, 6-24 hours (FIG. 11)
From the text: FIG. 11. […] Untreated cells served as the control.
as §1, with “T” for “T cells and CEA-specific CAR-T”, “was” for “and MFE-23 (described in US20050147614A1)-CD28Z CAR were separately”, “into a” for “into”, “vector,” for “vectors,”
as §2, with “to” for “to 1:1. CD33 CAR-T cells and CD33 expressing THP-1 cells were mixed at a ratio of 1:16 to”, “1:4.” for “1:4. CEA CAR-T cells and CEA expressing SW480 cells were mixed at a ratio of 1:1.”, “Biolegend),” for “Biolegend), anti-CD137-PE/Cy7 (4-1BB, Biolegend),”, “anti-CD25-AF700” for “anti-CD25-AF700 (BC96, Biolegend), anti-CD25-APC”, “anti-TNF-α-BV785” for “anti-TNF-α-BV785 (MAb11, Biolegend), anti-TNF-α-APC”, “BxPC3” for “BxPC3, MIA PaCa-2, MDA-MB-231”

O=c1ccn([C@@H]2O[C@H](COP(=O)(O)OP(=O)(O)OP(=O)(O)OP(=O)(O)OC[C@H]3O[C@@H](n4ccc(=O)[nH]c4=O)[C@H](O)[C@@H]3O)[C@@H](O)[C@H]2O)c(=O)[nH]1 [Diquafosol]
T cell-mediated cytotoxicity in THP-1 cells (THP-1 cells): confers resistance | T cell activation [1]: repressed

O=c1ccn([C@@H]2O[C@H](COP(=O)(O)OP(=O)(O)OP(=O)(O)O)[C@@H](O)[C@H]2O)c(=O)[nH]1 [UTP]
B7-H3 expression (B7-H3): increased B7-H3 expression in a dose-dependent manner

atezolizumab: Blocking antibody of the PD-L1-PD-1 immune checkpoint
viability of BxPC3 cells (BxPC3 cells): reduced

Nc1ccn([C@H]2C[C@H](O)[C@@H](COP(=O)(O)OP(=O)(O)OP(=O)(O)OP(=O)(O)OC[C@H]3O[C@@H](n4ccc(=O)[nH]c4=O)[C@H](O)[C@@H]3O)O2)c(=O)n1 [Denufosol]
T cell activation [1]: repressed

Nc1ncnc2c1ncn2[C@@H]1O[C@H](COP(=O)(O)OP(=O)(O)OP(=O)(O)O)[C@@H](O)[C@H]1O [ATP]
ATP-induced B7-H3 surface expression upon P2RY2 disruption (B7-H3; P2RY2-deficient THP-1, U937, KBM7, K562 cells, presence of ATP (FIG. 2)): abrogated | B7-H3 expression (B7-H3): increased B7-H3 expression in a dose-dependent manner | T cell activation [1]: repressed

Nc1ncnc2c1ncn2[C@@H]1O[C@H](COP(=O)(O)OP(=O)(O)OP(O)(O)=S)[C@@H](O)[C@H]1O [Adenosine-5′-(γ-thio)-triphosphate]
T cell activation [1]: repressed
